Reference: the NIST ThermoML archive (doi:10.1016/j.tca.2005.08.036)
Numbers after ± are expanded uncertainties.

Conditions: Liquid, Capillary tube (Ostwald / Ubbelohde) method

O [water]
viscosity [mPa·s]
Conditions | 284.56 K | 304.83 K | 335.46 K | 368.64 K | 397.56 K | 435.61 K
100 kPa | 1.257 ± 0.011 | 0.7654 ± 0.007 | 0.4482 ± 0.0044 | 0.2938 ± 0.0032 | – | –
10000 kPa | 1.249 ± 0.011 | 0.7725 ± 0.0071 | 0.4504 ± 0.0044 | 0.2966 ± 0.0032 | 0.2278 ± 0.0026 | 0.1679 ± 0.0022
40000 kPa | 1.231 ± 0.011 | 0.7745 ± 0.007 | 0.4635 ± 0.0045 | 0.3086 ± 0.0032 | 0.2358 ± 0.0027 | 0.1745 ± 0.0022
